Experimental data from PubChem BioAssay AID2060498 (Molecular Pharmacology Branch, DTP, NCI, 2025).

Test system: 171881-019-R-J1-PDC tumor spheroids, viability
Assay: Anticancer human tumor 171881-019-R-J1-PDC patient-derived invasive breast carcinoma cell line growth inhibition [GQUAD]
Details: spheroids with HUVEC and MSC; for IC50: curve of first compound; for viability, T/C: stronger effect = lower value
In short: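 Viability of tumor cells grown as complex spheroids with endothelial and stromal cells, exposed to drug combinations. Top concentration at or near clinical Cmax (else 10 microM), diluted in half-log increments.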

[1] = second compound 0.0316 µM, first compound 0.000999 µM
[2] = second compound 0.0316 µM, first compound 0.00316 µM
[3] = second compound 0.0316 µM, first compound 0.00999 µM
[4] = second compound 0.0316 µM, first compound 0.0316 µM
[5] = second compound 0.0316 µM, first compound 0.0999 µM
[6] = second compound 0.0316 µM, first compound 0.316 µM
[7] = second compound 0.1 µM, first compound 0.000999 µM
[8] = second compound 0.1 µM, first compound 0.00316 µM
[9] = second compound 0.1 µM, first compound 0.00999 µM
[10] = second compound 0.1 µM, first compound 0.0316 µM
[11] = second compound 0.1 µM, first compound 0.0999 µM
[12] = second compound 0.1 µM, first compound 0.316 µM
[13] = second compound 0.316 µM, first compound 0.000999 µM
[14] = second compound 0.316 µM, first compound 0.00316 µM
[15] = second compound 0.316 µM, first compound 0.00999 µM
[16] = second compound 0.316 µM, first compound 0.0316 µM
[17] = second compound 0.316 µM, first compound 0.0999 µM
[18] = second compound 0.316 µM, first compound 0.316 µM
[19] = second compound 1 µM, first compound 0.000999 µM
[20] = second compound 1 µM, first compound 0.00316 µM
[21] = second compound 1 µM, first compound 0.00999 µM
[22] = second compound 1 µM, first compound 0.0316 µM
[23] = second compound 1 µM, first compound 0.0999 µM
[24] = second compound 1 µM, first compound 0.316 µM
[25] = second compound 3.16 µM, first compound 0.000999 µM
[26] = second compound 3.16 µM, first compound 0.00316 µM
[27] = second compound 3.16 µM, first compound 0.00999 µM
[28] = second compound 3.16 µM, first compound 0.0316 µM
[29] = second compound 3.16 µM, first compound 0.0999 µM
[30] = second compound 3.16 µM, first compound 0.316 µM
[31] = second compound 10 µM, first compound 0.000999 µM
[32] = second compound 10 µM, first compound 0.00316 µM
[33] = second compound 10 µM, first compound 0.00999 µM
[34] = second compound 10 µM, first compound 0.0316 µM
[35] = second compound 10 µM, first compound 0.0999 µM
[36] = second compound 10 µM, first compound 0.316 µM
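For viability, T/C in this document: 100% = DMSO vehicle control viability.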

## Cn1ncnc1[C@H]1c2n[nH]c(=O)c3cc(F)cc(c23)N[C@@H]1c1ccc(F)cc1 + Cc1cnc(CNC(=O)c2c(=O)c3ccc(N4CCCN(C)CC4)nc3n3c2sc2ccccc23)cn1
Second compound 0.0316 µM
  IC50: > 316 nM
Second compound 0.1 µM
  IC50: > 316 nM
Second compound 0.316 µM
  IC50: > 316 nM
Second compound 1 µM
  IC50: > 316 nM
Second compound 3.16 µM
  IC50: > 316 nM
Second compound 10 µM
  IC50: > 316 nM
[1]
  viability, T/C: 94.5%
[2]
  viability, T/C: 86.1%
[3]
  viability, T/C: 95.2%
[4]
  viability, T/C: 87.2%
[5]
  viability, T/C: 79.1%
[6]
  viability, T/C: 73.6%
[7]
  viability, T/C: 82.2%
[8]
  viability, T/C: 83.2%
[9]
  viability, T/C: 82.4%
[10]
  viability, T/C: 76%
[11]
  viability, T/C: 63.3%
[12]
  viability, T/C: 59.9%
[13]
  viability, T/C: 73.7%
[14]
  viability, T/C: 74.3%
[15]
  viability, T/C: 67.5%
[16]
  viability, T/C: 63.5%
[17]
  viability, T/C: 64.4%
[18]
  viability, T/C: 65.1%
[19]
  viability, T/C: 68%
[20]
  viability, T/C: 59.8%
[21]
  viability, T/C: 70.4%
[22]
  viability, T/C: 63.5%
[23]
  viability, T/C: 63.5%
[24]
  viability, T/C: 61.9%
[25]
  viability, T/C: 61.3%
[26]
  viability, T/C: 60.1%
[27]
  viability, T/C: 61.2%
[28]
  viability, T/C: 64.7%
[29]
  viability, T/C: 65.1%
[30]
  viability, T/C: 59.1%
[31]
  viability, T/C: 58.6%
[32]
  viability, T/C: 63%
[33]
  viability, T/C: 60.4%
[34]
  viability, T/C: 59.9%
[35]
  viability, T/C: 65.9%
[36]
  viability, T/C: 60.4%

## Cn1ncnc1[C@H]1c2n[nH]c(=O)c3cc(F)cc(c23)N[C@@H]1c1ccc(F)cc1 + CN(C)c1ccc(Nc2c3ccc(NC(=O)CCN4CCCC4)cc3nc3cc(NC(=O)CCN4CCCC4)ccc23)cc1
Second compound 0.0316 µM
  IC50: > 316 nM
Second compound 0.1 µM
  IC50: > 316 nM
Second compound 0.316 µM
  IC50: > 316 nM
Second compound 1 µM
  IC50: < 0.999 nM
Second compound 3.16 µM
  IC50: < 0.999 nM
Second compound 10 µM
  IC50: < 0.999 nM
[1]
  viability, T/C: 95.8%
[2]
  viability, T/C: 98%
[3]
  viability, T/C: 91.5%
[4]
  viability, T/C: 102%
[5]
  viability, T/C: 88.9%
[6]
  viability, T/C: 96.1%
[7]
  viability, T/C: 105%
[8]
  viability, T/C: 97.8%
[9]
  viability, T/C: 98.8%
[10]
  viability, T/C: 100%
[11]
  viability, T/C: 72.9%
[12]
  viability, T/C: 87.6%
[13]
  viability, T/C: 87.7%
[14]
  viability, T/C: 84.6%
[15]
  viability, T/C: 89%
[16]
  viability, T/C: 68.2%
[17]
  viability, T/C: 79.3%
[18]
  viability, T/C: 77%
[19]
  viability, T/C: 35.8%
[20]
  viability, T/C: 24.4%
[21]
  viability, T/C: 34.5%
[22]
  viability, T/C: 16.9%
[23]
  viability, T/C: 22%
[24]
  viability, T/C: 19.1%
[25]
  viability, T/C: 2.45%
[26]
  viability, T/C: 2.11%
[27]
  viability, T/C: 1.92%
[28]
  viability, T/C: 1.34%
[29]
  viability, T/C: 1.64%
[30]
  viability, T/C: 2.41%
[31]
  viability, T/C: 0.29%
[32]
  viability, T/C: 0.56%
[33]
  viability, T/C: 0.56%
[34]
  viability, T/C: 0.4%
[35]
  viability, T/C: 0.71%
[36]
  viability, T/C: 1.05%
